# Assay results published in paper PMC9861162 (Pharmaceuticals, 2022).
# Several values for one entry are separate records, joined by “and”; a condition that tells them apart may be missing. Identical values can stand only once.
# How the values were obtained:
# interdigital tinea pedis = conditions: ref [3]; cited from earlier work
# [1] = parameters: method as in Antunes et al. [14]; conditions: ref Antunes et al. [14], cited from earlier work
# pityriasis versicolor = conditions: ref [5]; cited from earlier work
# CYP2C8 [2] = biological target: T1, CYP2C8 (Homo sapiens, UniProt P10632); conditions: microsomes
# T1 sequence (P10632 1-490): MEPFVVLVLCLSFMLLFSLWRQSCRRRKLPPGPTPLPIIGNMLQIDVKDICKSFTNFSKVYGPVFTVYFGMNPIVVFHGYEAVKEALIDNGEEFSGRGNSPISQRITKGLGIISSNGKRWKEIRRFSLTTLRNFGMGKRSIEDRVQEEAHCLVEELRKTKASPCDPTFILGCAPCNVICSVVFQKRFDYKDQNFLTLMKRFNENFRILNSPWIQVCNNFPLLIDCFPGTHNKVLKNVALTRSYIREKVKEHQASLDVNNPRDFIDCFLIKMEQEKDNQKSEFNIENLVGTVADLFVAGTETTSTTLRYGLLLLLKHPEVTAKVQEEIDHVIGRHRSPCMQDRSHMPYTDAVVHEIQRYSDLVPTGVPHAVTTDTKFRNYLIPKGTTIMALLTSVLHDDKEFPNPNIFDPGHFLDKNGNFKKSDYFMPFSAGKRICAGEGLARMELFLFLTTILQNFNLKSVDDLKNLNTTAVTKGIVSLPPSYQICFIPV
# Protocol: (§1) The incubation conditions employed for each CYP450 isoform were performed, as previously described.
# (§2) Buffer solution (0.1 mol/L aqueous phosphate buffer, pH 7.4, 69 µL), NADPH-regenerating solutions (10 µL solution A: 26 mmol/L NADP+, 66 mmol/L glucose-6-phosphate, and 66 mmol/L MgCl2; 2 µL solution B: 40 U/mL glucose-6-phosphate dehydrogenase in 5 mmol/L sodium citrate), and deionized water (69 µL) were added, in a total volume of 150 μL. The tubes were vortex-mixed and preincubated with continuous gentle shaking for 5 min at 37 °C in a shaking water bath. Reactions were initiated by the addition of 50 µL of HLM solution in the tubes which were gently mixed by hand and incubated with continuous gentle shaking at 37 °C. Aliquots of 200 µL ice-cold solvent (Table 1) containing IS (1 µg/mL) were added. […] The supernatants were transferred to glass autosampler vials and submitted to LC-MS/MS analysis (5 µL injection volume) to monitor the substrate metabolite formation.
# CYP2C19 = CYP2C19 (Homo sapiens, UniProt P33261); conditions: microsomes
# CYP2C19, sequence (P33261 whole entry): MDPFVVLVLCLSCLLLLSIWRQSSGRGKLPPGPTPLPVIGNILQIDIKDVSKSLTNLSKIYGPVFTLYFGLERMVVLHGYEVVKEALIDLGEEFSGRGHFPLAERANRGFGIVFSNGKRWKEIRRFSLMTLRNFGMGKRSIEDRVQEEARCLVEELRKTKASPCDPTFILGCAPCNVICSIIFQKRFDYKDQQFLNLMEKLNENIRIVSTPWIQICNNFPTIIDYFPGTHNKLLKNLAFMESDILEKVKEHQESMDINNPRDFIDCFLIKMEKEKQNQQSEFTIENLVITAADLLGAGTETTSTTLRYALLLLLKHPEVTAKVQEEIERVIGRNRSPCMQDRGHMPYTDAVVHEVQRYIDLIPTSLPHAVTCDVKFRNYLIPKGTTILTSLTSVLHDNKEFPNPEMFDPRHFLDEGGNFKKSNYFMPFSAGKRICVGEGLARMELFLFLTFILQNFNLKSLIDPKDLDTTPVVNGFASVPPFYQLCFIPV
# Protocol: as §1, §2
# CYP2D6 [3] = biological target: T2, CYP2D6 (Homo sapiens, UniProt P10635); conditions: microsomes
# T2 sequence (P10635 whole entry): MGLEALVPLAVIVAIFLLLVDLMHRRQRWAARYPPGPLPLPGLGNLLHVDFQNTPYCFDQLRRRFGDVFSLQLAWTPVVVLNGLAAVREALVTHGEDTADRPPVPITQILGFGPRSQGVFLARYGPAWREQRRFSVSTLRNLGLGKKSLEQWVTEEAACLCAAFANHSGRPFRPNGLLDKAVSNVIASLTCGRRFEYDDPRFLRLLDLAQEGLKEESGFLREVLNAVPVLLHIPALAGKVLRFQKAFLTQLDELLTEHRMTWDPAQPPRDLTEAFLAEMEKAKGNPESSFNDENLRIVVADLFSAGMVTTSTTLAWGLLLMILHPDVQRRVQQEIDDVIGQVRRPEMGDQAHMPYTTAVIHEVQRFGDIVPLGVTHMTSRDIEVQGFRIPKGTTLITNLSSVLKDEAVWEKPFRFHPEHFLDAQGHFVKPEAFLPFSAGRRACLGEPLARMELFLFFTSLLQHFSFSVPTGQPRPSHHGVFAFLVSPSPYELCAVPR
# Protocol: as §1, §2
# CYP1A2 [4] = biological target: T3, CYP1A2 (Homo sapiens, UniProt P05177); conditions: microsomes
# T3 sequence (P05177 1-516): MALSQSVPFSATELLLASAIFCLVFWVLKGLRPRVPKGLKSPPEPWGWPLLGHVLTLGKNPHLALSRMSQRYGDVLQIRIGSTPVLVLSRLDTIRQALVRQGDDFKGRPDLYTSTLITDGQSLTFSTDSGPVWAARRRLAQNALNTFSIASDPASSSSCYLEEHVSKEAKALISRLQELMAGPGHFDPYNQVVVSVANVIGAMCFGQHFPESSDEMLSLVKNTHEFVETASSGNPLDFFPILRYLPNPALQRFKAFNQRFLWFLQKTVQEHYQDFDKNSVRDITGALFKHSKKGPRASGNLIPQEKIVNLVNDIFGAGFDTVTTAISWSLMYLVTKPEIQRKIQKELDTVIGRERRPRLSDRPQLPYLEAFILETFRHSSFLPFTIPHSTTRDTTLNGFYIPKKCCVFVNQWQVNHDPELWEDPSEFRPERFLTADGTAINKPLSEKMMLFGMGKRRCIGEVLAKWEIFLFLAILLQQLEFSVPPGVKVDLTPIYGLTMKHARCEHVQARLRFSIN
# Protocol: as §1, §2
# CYP2C9 [5] = biological target: T4, CYP2C9 (Homo sapiens, UniProt P11712); conditions: microsomes
# T4 sequence (P11712 whole entry): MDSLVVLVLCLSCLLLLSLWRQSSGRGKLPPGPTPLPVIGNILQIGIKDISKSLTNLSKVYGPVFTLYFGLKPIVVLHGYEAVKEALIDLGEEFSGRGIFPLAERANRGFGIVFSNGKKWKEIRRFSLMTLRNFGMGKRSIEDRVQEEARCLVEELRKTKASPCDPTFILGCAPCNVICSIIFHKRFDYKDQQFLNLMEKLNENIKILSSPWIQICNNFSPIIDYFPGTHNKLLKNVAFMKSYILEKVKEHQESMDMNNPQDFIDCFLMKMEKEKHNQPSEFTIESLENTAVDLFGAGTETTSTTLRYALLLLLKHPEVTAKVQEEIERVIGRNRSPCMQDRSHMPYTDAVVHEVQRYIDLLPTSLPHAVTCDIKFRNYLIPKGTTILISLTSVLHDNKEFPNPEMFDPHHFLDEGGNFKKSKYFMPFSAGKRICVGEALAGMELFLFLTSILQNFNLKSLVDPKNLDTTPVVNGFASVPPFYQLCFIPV
# Protocol: as §1, §2
# CYP3A4/5 = assay: in vitro CYP450 metabolism inhibition assay in human liver microsomes, CYP3A (midazolam or nifedipine)
# Protocol: as §1, §2
# CYP1A2 [6] = biological target: T3, CYP1A2; assay: clinical DDI prediction, static (IVIVE) and dynamic (PBPK) models, CYP1A2
# Excerpt: (§3) The Ki input values were estimated from the ratio IC50/2. Since the IC50 experiments were designed considering the substrate concentration equal to Km, the simplification of Ki as IC50/2 was considered for a competitive inhibition reaction.
# (§4) The following Equation (4) was considered for the potential DDI evaluation:(4) AUCR=AUCwith inhibitor/AUCwithout inhibitor where AUCR is the area under the curve ratio, AUCwith inhibitor is AUC in the presence of the inhibitor, and AUCwithout inhibitor is AUC in the absence of the inhibitor.
# [7] = parameters: method as in Drugbank; conditions: PBPK input; ref Drugbank; cited from earlier work
# [8] = all trials; ref [3],[4],[5]; cited from earlier work
# [9] = system: several pathogenic fungi, such as Tricophyton verrucosum, Tricophyton rubrum, Trycophyton mantagrophutes, Microsporum gypseum, Microsporum canis, and …; conditions: ref [1]-[7]; cited from earlier work
# CYP2C8 [10] = biological target: T1, CYP2C8
# Excerpt: as §3, §4
# CYP2D6 [11] = biological target: T2, CYP2D6
# Excerpt: as §3, §4
# CYP2C9 [12] = biological target: T4, CYP2C9
# Excerpt: as §3, §4
# tinea cruris = conditions: topical treatment of tinea cruris; ref [4]; cited from earlier work
compound,measurement,setting,value
"FC(F)(F)c1ccc(COC(Cn2ccnc2)c2ccc(Cl)cc2Cl)cc1 (stereo not drawn) [dapaconazole, Dapaconazole]",efficacy compared with ketoconazole,interdigital tinea pedis,noninferior efficacy
same,"fu,inc",[1]; dog liver microsome incubation,0.97
same,CL int. mic.,[1]; dog liver microsomes,257.97 µL/min/mg and 258 µL/min/mg
same,efficacy compared with ketoconazole,pityriasis versicolor,noninferior efficacy
same,in vitro reversible inhibition class from IC50,CYP2C8 [2],slightly inhibits
same,Ki,CYP2C19,30 nM
same,Ki,CYP2D6 [3],430 nM
same,IC50,CYP1A2 [4],3680 nM
same,Ki,CYP1A2 [4],1840 nM
same,Ki,CYP2C9 [5],110 nM
same,IC50,"CYP3A4/5; HLM, 3A4, range over midazolam and nifedipine substrates",8 to 30 nM
same,IC50,"CYP3A4/5; HLM, midazolam as substrate, figure in parentheses not defined",7.69 nM
same,Ki,"CYP3A4/5; Ki = IC50/2, substrate midazolam",4 nM
same,IC50,CYP3A4/5; microsomes,30.3 nM
same,DDI potential from Ki and R1 values,CYP1A2 [6]; CYP1A2,moderate potential
same,R1,"CYP1A2 [6]; reversible inhibition, R1=1+(Imax,u/Ki,u), substrate phenacetin",1.20
same,log P,[7],5.63
same,pKa (monoprotic base),[7],6.77
same,safety profile,[8],good safety profile
same,antifungal activity,[9],antifungal activity
same,DDI potential from Ki and R1 values,CYP2C8 [10],low potential
same,R1,CYP2C8 [10],1.01
same,DDI potential from Ki and R1 values,CYP2D6 [11],high potential
same,R1,CYP2D6 [11],1.86
same,DDI potential from Ki and R1 values,CYP2C9 [12],high potential
same,R1,CYP2C9 [12],4.43
same,efficacy compared with miconazole,tinea cruris,noninferior efficacy
